Experimental data taken from patent US12577214B2, “Polymorphs of bis(fluoroalkyl)-1,4-benzodiazepinone compounds and uses thereof” (Bristol-Myers Squibb Company, priority 2020, dated 2026).
≈ marks a conversion by molar mass, not a printed value. Where two headings read alike, the source gives them in different places.

Key:
Type in all cases: physicochemical
[1] = Solid state stability of N-2 free base form
Experimental: Solid state stability was conducted only on N-2, at 5° C., 25° C., 40° C./75% RH (open and closed), and 50° C. for up to 4 weeks.

[2] = Solubility of N-2 in water and solvents
Experimental: N-2 has an aqueous solubility of <1 μg/mL in water.

[3] = Form stability on heating (PXRD); details: heating to 270° C.
Experimental: FIG. 1 depicts PXRD patterns of the N-2 form at room temperature (bottom), 165° C. (middle) and 270° C. (top).
The crystal structure for Compound 1 was determined by single crystal X-ray diffraction studies on elongated prismatic crystals grown from THF/heptane. The intermolecular hydrogen-bonding in the N-2 structure is shown in FIGS. 12A-12B; the structure contains small voids of about 20 Å^3. The experimental PXRD pattern for N-2 matches the simulated pattern which confirms the single phase identity of N-2 crystallized in bulk (FIG. 13). […] (FIG. 1).

[4] = Form stability on slurrying in aqueous solutions (PXRD); details: slurry at RT in FASIF and in HCl (pH=1)
Text: FIG. 16 depicts PXRD patterns of: P1 form following slurrying thereof in FASIF (fasted state simulated intestinal fluid) (top); in HCl (pH=1) (middle); and of N-2 form (bottom). […] (FIG. 14). […] (FIG. 15).

SMILES: Cc1cccc2c1NC(=O)[C@@H](NC(=O)[C@H](CCC(F)(F)F)[C@H](CCC(F)(F)F)C(N)=O)N=C2c1cccc(F)c1 [Compound N-2]
- Solid state stability (chemical and physical) ([1]; 5° C., 25° C., 40° C./75% RH (open and closed), and 50° C. for up to 4 weeks): chemically and physically stable
- Stability when exposed to high intensity light (HIL)/ultraviolet (UV) light ([1]; HIL/UV light for 7 days): chemically and physically stable
- solubility ([2]; PEG 400, organic solvent or mixture, read-out: solubility in PEG 400): ~38 mg/mL (≈ 66.1 mM)
- solubility ([2]; in water, read-out: aqueous solubility): < 0.001 mg/mL
- Physical form after heating [3]: No physical change in form

SMILES: Cc1cccc2c1NC(=O)[C@@H](NC(=O)[C@H](CCC(F)(F)F)[C@H](CCC(F)(F)F)C(N)=O)N=C2c1cccc(F)c1 [Compound P1]
- Form after slurrying in aqueous solutions [4]: converts to N-2
